Biological target: Protein Kinase C beta 2 (PKCβII) (Homo sapiens (Human), UniProt P05771)
Assay: PKCβII coupled PK/LDH spectrophotometric kinase assay
Assay type: biochemical
Conditions: apparent Ki, ATP-competitive model (Morrison equation); 0.1 mM ATP, 30° C.; read-out: PKCb Ki
Description: This transfer is coupled to the oxidation of β-NADH through the activities of Pyruvate Kinase (PK) and Lactate Dehydrogenase (LDH). β-NADH conversion to NAD+ is monitored by the decrease in absorbance at 340 nm (e=6.22 cm^−1 mM^−1) using a Molecular Devices SPECTRA max PLUS spectrophotometer.
A typical assay was carried out on a 96-well, clear microtiter plate in a Molecular Devices spectrophotometer for 20 minutes at 30° C. in 0.1 mL of assay buffer containing 50 mM HEPES, pH 7.4, 5 nM PKC, 23 units of pyruvate kinase, 33 units of lactate dehydrogenase, 0.15 mM peptide, 0.1 mM ATP, 1 mM DTT, 4 mM PEP, 8 mM MgCl2, 0.3 mM NADH, 60 mM CaCl2, 10 mg/mL PS, 50 ng/mL PMA, 7.5% DMSO and from about 10,000 nM to 0.169 nM compound inhibitor. Stock solutions of 3-sn-phosphatidyl-L-serine (PS) and phorbol-12-myristate-13-acetate (PMA) were sonicated for 30 seconds just prior to addition to assay buffer and assays were initiated by the addition of 100 μM ATP.
Enzyme turnover values (kcat) were calculated according to […], where [E] is the total enzyme concentration. Enzyme inhibition constants (apparent K values) were determined by fitting initial velocities at variable inhibitor concentrations to a model for ATP competitive inhibition based on the Morrison equation). Morrison, J. F., Biochim. Biophys Acta 185: 269-286 (1969).

Sequence of Protein Kinase C beta 2 (PKCβII) (P05771 other isoform, or with tags, fused parts or gaps): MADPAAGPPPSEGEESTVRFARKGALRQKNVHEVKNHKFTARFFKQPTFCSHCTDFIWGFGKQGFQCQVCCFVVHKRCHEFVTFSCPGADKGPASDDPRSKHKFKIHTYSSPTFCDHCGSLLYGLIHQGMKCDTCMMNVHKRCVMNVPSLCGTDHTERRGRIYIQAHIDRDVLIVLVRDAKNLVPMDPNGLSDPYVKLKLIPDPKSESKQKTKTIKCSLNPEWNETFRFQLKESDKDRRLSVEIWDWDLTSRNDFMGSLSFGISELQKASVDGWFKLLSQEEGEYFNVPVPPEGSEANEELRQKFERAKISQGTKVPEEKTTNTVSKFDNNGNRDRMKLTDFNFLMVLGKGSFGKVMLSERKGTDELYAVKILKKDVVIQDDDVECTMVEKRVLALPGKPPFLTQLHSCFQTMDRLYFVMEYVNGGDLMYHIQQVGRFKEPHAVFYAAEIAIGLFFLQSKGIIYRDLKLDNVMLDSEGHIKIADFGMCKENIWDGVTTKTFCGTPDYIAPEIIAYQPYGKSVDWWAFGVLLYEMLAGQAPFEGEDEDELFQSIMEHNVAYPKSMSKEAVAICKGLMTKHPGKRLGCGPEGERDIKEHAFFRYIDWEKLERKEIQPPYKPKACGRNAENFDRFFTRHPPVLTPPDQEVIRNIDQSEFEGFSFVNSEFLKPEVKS

| SMILES | Ki |
| --- | --- |
| C[C@H]1CN2C[C@H]3CC3[C@H]2CN1C(=O)N1Cc2c(NC(=O)c3ccccn3)n[nH]c2C1(C)C (stereo partly drawn) [Example A104] | 83.7 nM |
| CC(C)c1csc(C(=O)Nc2n[nH]c3c2CN(C(=O)N2C[C@@H]4CCCN4C[C@@H]2C)C3(C)C)n1 [Example A55] | 177 nM |
| C[C@H]1CN2CCC[C@H]2CN1C(=O)N1Cc2c(NC(=O)c3cc(N(C)C)ccn3)n[nH]c2C1(C)C [Example A87] | 32.3 nM |
| CC(C)[C@H]1CN2CCC[C@H]2CN1C(=O)N1Cc2c(NC(=O)c3ccc(F)cc3F)n[nH]c2C1(C)C [Example A101] | 148 nM |
| CC[C@H]1CN2CCC[C@H]2CN1C(=O)N1Cc2c(NC(=O)c3ccccn3)n[nH]c2C1(C)C [Example A70] | 46.2 nM |
| CC1(C)c2[nH]nc(NC(=O)c3ccccn3)c2CN1C(=O)N1C[C@@H]2CCCN2C[C@@H]1CC1CCCCC1 [Example A56] | 18.1 nM |
| C[C@H]1CN2CCC[C@H]2CN1C(=O)N1Cc2c(NC(=O)c3ccccc3)n[nH]c2C1(C)C [Example A27] | 35.1 nM |
| COc1cccc(C(=O)Nc2n[nH]c3c2CN(C(=O)N2C[C@@H]4CCCN4C[C@@H]2C)C3(C)C)c1 [Example A39] | 47.4 nM |
| CN1CCN(C(=O)N2Cc3c(NC(=O)c4cccc(Oc5ccccc5)c4)n[nH]c3C2(C)C)C(c2ccccc2)C1 (stereo not drawn) [Example A9] | 159 nM |
| CC[C@H]1CN2CCC[C@H]2CN1C(=O)N1Cc2c(NC(=O)c3cccc(Cl)c3)n[nH]c2C1(C)C [Example A71] | 49.9 nM |
| CCc1nc(C(=O)Nc2n[nH]c3c2CN(C(=O)N2C[C@@H](C)N(CC4CCOCC4)C[C@@H]2C)C3(C)C)cs1 [Example F25] | 33.3 nM |
| C[C@H]1CN2CCC[C@H]2CN1C(=O)N1Cc2c(NC(=O)c3c(F)cccc3C(F)(F)F)n[nH]c2C1(C)C [Example A37] | 155 nM |
| C[C@H]1CN2CCC[C@H]2CN1C(=O)N1Cc2c(NC(=O)c3ccc(F)cn3)n[nH]c2C1(C)C [Example A92] | 20.3 nM |
| CCc1cc(C(=O)Nc2n[nH]c3c2CN(C(=O)N2C[C@@H](C)N(CC4CCOCC4)C[C@@H]2C)C3(C)C)on1 [Example F18] | 32.1 nM |
| C[C@H]1CN2CCC[C@H]2CN1C(=O)N1Cc2c(NC(=O)c3ccc(Br)cn3)n[nH]c2C1(C)C [Example A91] | 20.3 nM |
| C[C@H]1CN2CCC[C@H]2CN1C(=O)N1Cc2c(NC(=O)c3cc(Cl)ccc3F)n[nH]c2C1(C)C [Example A33] | 82.7 nM |
| CCc1ccnc(C(=O)Nc2n[nH]c3c2CN(C(=O)N2C[C@@H]4CCCN4C[C@@H]2C)C3(C)C)c1 [Example A53] | 66.3 nM |
| C[C@H]1CN(C)C2(CCC2)CN1C(=O)N1Cc2c(NC(=O)c3ccccn3)n[nH]c2C1(C)C [Example A133] | 8.58 nM |
| CCCc1cc(C(=O)Nc2n[nH]c3c2CN(C(=O)N2C[C@@H](C)N(CC4CCOCC4)C[C@@H]2C)C3(C)C)no1 [Example F24] | 59.4 nM |

| SMILES | Ki |
| --- | --- |
| CCn1nc(C)cc1C(=O)Nc1n[nH]c2c1CN(C(=O)N1C[C@@H](C)N(CC3CCOCC3)C[C@@H]1C)C2(C)C [Example F14] | 20 nM |
| COc1ccc(C(=O)Nc2n[nH]c3c2CN(C(=O)N2C[C@@H]4CCCN4C[C@@H]2C)C3(C)C)cc1 [Example A40] | 32.7 nM |
| CC[C@H]1CN2CCC[C@@H]2CN1C(=O)N1Cc2c(CC(=O)c3ccccn3)n[nH]c2C1(C)C [Example A90] | 107 nM |
| COCCN1C[C@H](C)N(C(=O)N2Cc3c(NC(=O)c4ccccn4)n[nH]c3C2(C)C)C[C@H]1C [Example A93] | 63.6 nM |
| Cc1cc(C(=O)Nc2n[nH]c3c2CN(C(=O)N2C[C@@H]4CCCN4C[C@@H]2C)C3(C)C)nc(C)n1 [Example A75] | 56.9 nM |
| COc1ccc(C(=O)Nc2n[nH]c3c2CN(C(=O)N2C[C@@H]4CCCN4C[C@@H]2Cc2ccccc2)C3(C)C)cc1 [Example A18] | 30.2 nM |
| C[C@@H]1CN(C(=O)N2Cc3c(NC(=O)c4cn(C)cn4)n[nH]c3C2(C)C)[C@@H](C)CN1CC1CCOCC1 [Example E14] | 156 nM |
| CC1(C)c2[nH]nc(NC(=O)c3ccc4ccncc4n3)c2CN1C(=O)N1C[C@@H]2CCCN2C[C@@H]1Cc1ccccc1 [Example A25] | 28.8 nM |
| Cc1cc(C(=O)Nc2n[nH]c3c2CN(C(=O)N2C[C@@H]4CCCN4C[C@@H]2C)C3(C)C)nc(Cl)n1 [Example A58] | 35.3 nM |
| CCN1CCN(C(=O)N2Cc3c(NC(=O)c4ccccn4)n[nH]c3C2(C)C)CC1C (stereo not drawn) [Example A128] | 156 nM |
| C[C@H]1CN2CCC[C@H]2CN1C(=O)N1Cc2c(NC(=O)c3cc4cccn4cn3)n[nH]c2C1(C)C [Example A76] | 13.9 nM |
| C[C@H]1CN2CCC[C@H]2CC1C(=O)N1Cc2c(NC(=O)c3csc(Br)n3)n[nH]c2C1(C)C (stereo partly drawn) [Example A103] | 12.9 nM |
| CC1(C)c2[nH]nc(NC(=O)c3cccc(Cl)c3)c2CN1C(=O)N1CCN2CCCC2C1 (stereo not drawn) [Example A22] | 28.9 nM |
| C[C@H]1CN2CCC[C@H]2CN1C(=O)N1Cc2c(NC(=O)c3c(F)cccc3Cl)n[nH]c2C1(C)C [Example A38] | 181 nM |
| CCC1CN(C(=O)N2Cc3c(NC(=O)c4ccccn4)n[nH]c3C2(C)C)CCN1C (stereo not drawn) [Example A79] | 79.6 nM |
| CN1CCN(C(=O)N2Cc3c(NC(=O)c4cc5ccccc5o4)n[nH]c3C2(C)C)[C@@H](Cc2ccccc2)C1 [Example A7] | 124 nM |
| CC[C@H]1CN2CCC[C@H]2CN1C(=O)N1Cc2c(NC(=O)c3ccc(F)cc3)n[nH]c2C1(C)C [Example A73] | 115 nM |
| C[C@H]1CN2CCC[C@H]2CN1C(=O)N1Cc2c(NC(=O)c3cc(C(F)(F)F)ccc3F)n[nH]c2C1(C)C [Example A35] | 176 nM |

Now from value to compound:

| Ki | SMILES |
| --- | --- |
| 72.9 nM | Cc1cnc(C(=O)Nc2n[nH]c3c2CN(C(=O)N2C[C@@H]4CCCN4C[C@@H]2C)C3(C)C)cn1 [Example E2] |
| < 10 nM | C[C@@H]1CN(C(=O)N2Cc3c(NC(=O)c4ccc(Cl)cn4)n[nH]c3C2(C)C)[C@@H](C)CN1C1CCOCC1 [Example F56] |
| 118 nM | C[C@H]1CN2CCC[C@H]2CN1C(=O)N1Cc2c(NC(=O)c3ccnn3C)n[nH]c2C1(C)C [Example E8] |
| 31.3 nM | Cc1nc(C(=O)Nc2n[nH]c3c2CN(C(=O)N2C[C@@H]4CCCN4C[C@@H]2C)C3(C)C)cs1 [Example E9] |
| 23.6 nM | C[C@@H]1CN(C(=O)N2Cc3c(NC(=O)c4ccccn4)n[nH]c3C2(C)C)[C@@H](C)CN1CCCC#N [Example A141] |
| 66.4 nM | CCc1ocnc1C(=O)Nc1n[nH]c2c1CN(C(=O)N1C[C@@H](C)N(C)C[C@@H]1C)C2(C)C [Example C7] |
| 186 nM | C[C@H]1CN2CCC[C@H]2CN1C(=O)N1Cc2c(NC(=O)C3CCCCO3)n[nH]c2C1(C)C (stereo partly drawn) [Example A112] |
| 1.9 nM | C[C@@H]1CN(C(=O)N2Cc3c(NC(=O)c4ccccn4)n[nH]c3C2(C)C)[C@@H](C)CN1CC1CCOCC1 [Example A143] |
| 83.6 nM | CCc1nc(C)c(C(=O)Nc2n[nH]c3c2CN(C(=O)N2C[C@@H](C)N(CCCOC)C[C@@H]2C)C3(C)C)o1 [Example F6] |
| 22.2 nM | CCN1C[C@H](C)N(C(=O)N2Cc3c(NC(=O)c4ccc(F)cn4)n[nH]c3C2(C)C)C[C@@H]1C [Example A126] |
| 12.2 nM | Cc1ccc(C(=O)Nc2n[nH]c3c2CN(C(=O)N2C[C@@H](C)N(C4CCOCC4)C[C@@H]2C)C3(C)C)nc1 [Example F54] |
| < 10 nM | CCc1ccc(C(=O)Nc2n[nH]c3c2CN(C(=O)N2C[C@@H](C)N(C4CCOCC4)C[C@@H]2C)C3(C)C)nc1 [Example F51] |
| 37.3 nM | CCc1cc(C(=O)Nc2n[nH]c3c2CN(C(=O)N2C[C@@H](C)N(CCCOC)C[C@@H]2C)C3(C)C)n(C)n1 [Example F4] |
| 28.7 nM | C[C@@H]1CN(C(=O)N2Cc3c(NC(=O)c4ccc(C#N)cn4)n[nH]c3C2(C)C)[C@@H](C)CN1C [Example G2] |
| 6.17 nM | C[C@H]1CN2CCC[C@H]2CN1C(=O)N1Cc2c(NC(=O)c3ccc4cnccc4n3)n[nH]c2C1(C)C [Example E4] |
| 95.6 nM | COCCCN1C[C@H](C)N(C(=O)N2Cc3c(NC(=O)c4ocnc4C)n[nH]c3C2(C)C)C[C@H]1C [Example F8] |
| < 10 nM | COc1ccc(C(=O)Nc2n[nH]c3c2CN(C(=O)N2C[C@@H](C)N(C4CCOCC4)C[C@@H]2C)C3(C)C)nc1 [Example F55] |
| 78.4 nM | COCCCN1C[C@H](C)N(C(=O)N2Cc3c(NC(=O)c4cc(C)nc(C)n4)n[nH]c3C2(C)C)C[C@H]1C [Example F2] |
| 76.2 nM | C[C@@H]1CN(C(=O)N2Cc3c(NC(=O)c4ccccn4)n[nH]c3C23CC3)[C@@H](C)CN1CC1CCOCC1 [Example A152] |
| 75.3 nM | CC1(C)c2n[nH]c(NC(=O)c3ccccn3)c2CN1C(=O)C1(F)CCN(C2CCC2)CC1 [Example B1, Pyridine-2-carboxylic acid [5-(1-cyclobutyl-4-fluoro-piperidine-4-carbonyl)-6,6-dimethyl-1,4,5,6-tetrahydro-pyrrolo[3,4-c]pyrazol-3-yl]-amide] |
| 24 nM | C[C@@H]1CN(C(=O)N2Cc3c(NC(=O)c4ccncn4)n[nH]c3C2(C)C)[C@@H](C)CN1C1CCOCC1 [Example F53] |
| 37 nM | C[C@@H]1CN(C(=O)N2Cc3c(NC(=O)c4ccccn4)n[nH]c3C2(C)C)[C@@H](C)CN1CC1(C)COC1 [Example A153] |
| 10.6 nM | C[C@H]1CN2CCC[C@H]2CN1C(=O)N1Cc2c(NC(=O)c3cc(C(C)(C)C)nn3C)n[nH]c2C1(C)C [Example E10] |

Reference: patent US8999981B2, “3-amido-pyrrolo[3,4-C]pyrazole-5(1H, 4H,6H) carbaldehyde derivatives” (Pfizer Inc., priority 2007, dated 2015)
